Experimental data published in patent US8785499B2 (priority 2009, dated 2014).

Tests used:
ecNadD = ecNadD (Escherichia coli (strain K12), UniProt P0A752); test: biochemical; type: biochemical
baNadD = baNadD (Bacillus anthracis, UniProt C3L5T6); test: biochemical; type: biochemical
Chain of baNadD (C3L5T6 whole entry, looked up): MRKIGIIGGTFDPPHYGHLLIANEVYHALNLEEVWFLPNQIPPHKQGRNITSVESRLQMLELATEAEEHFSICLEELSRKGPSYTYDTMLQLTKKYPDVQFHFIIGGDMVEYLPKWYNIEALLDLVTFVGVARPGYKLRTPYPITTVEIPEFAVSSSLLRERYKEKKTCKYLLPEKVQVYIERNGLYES

SMILES	[…]. coli (ecNadD)	[…]. anthracis (baNadD)
COC(=O)c1cc(O)c(C(=O)Nc2ccc(Cl)c(Cl)c2)s1 [compound 052]	16%	24%
CCc1c(O)nc(SC2CC(=O)N(c3ccccc3)C2=O)nc1O (stereo not shown) [compound 053]	16%	0%
Nc1ccc(/C=C/c2cccc(C(=O)O)n2)cc1 [compound 054]	15%	27%
CC(Sc1ccccc1)C(=O)Nc1ccccc1C(=O)O (stereo not shown) [compound 055]	15%	15%
O=[N+]([O-])c1ccc(/C=N\NS(=O)(=O)c2ccc(Cl)cc2)o1 [compound 057]	15%	28%
Nc1nnc(SCC(=O)Nc2nccs2)n1-c1ccccc1 [compound 058]	15%	0%
NS(=O)(=O)c1ccc2nc(NC(=O)c3ccncc3)sc2c1 [compound 059]	15%	0%
Oc1ccc(Br)cc1/C=N/Nc1nnn[nH]1 [compound 060]	15%	0%
O=[N+]([O-])/C=C/Nc1cccc([N+](=O)[O-])c1 [compound 061]	14%	0%
N/C(=N\OCC(=O)Nc1ccc([NH2+][O-])cc1)c1nonc1N [compound 062]	14%	0%
O=[N+]([O-])c1cc2c(cc1/C=N/Nc1nnn[nH]1)OCO2 [compound 063]	14%	81%
CCn1c(SCC(N)=O)nnc1-c1ccc(Cl)cc1 [compound 065]	14%	0%
Cc1cc(N/C=C2\N=C(c3ccc(Cl)cc3)OC2=O)no1 [compound 066]	13%	80%
O=C(O)c1cc(C(=O)O)c2cc(Oc3ccc4nc(C(=O)O)cc(C(=O)O)c4c3)ccc2n1 [compound 067]	13%	1%
O=C1C/C(=C/NCCc2ccc(O)cc2)C(=O)N1 [compound 068]	13%	10%
CN1C(=O)S/C(=C\c2ccc(OCC(=O)O)c(I)c2)C1=O [compound 069]	13%	7%
O=C(O)/C=C/c1ccc(S(=O)(=O)NCc2ccc3c(c2)OCO3)cc1 [compound 070]	13%	5%
Cc1ccc(C(=O)Nc2ccccc2)cc1S(=O)(=O)Nc1ccccn1 [compound 071]	12%	7%
O=C(CSS(=O)(=O)O)NCCc1c[nH]c2ccccc12 [compound 072]	12%	0%
NS(=O)(=O)c1ccc(NC(=O)CSc2ccc3ccccc3n2)cc1 [compound 073]	12%	0%
CSc1ccc(/C=N/c2ccc(S(N)(=O)=O)cc2)cc1 [compound 076]	12%	0%
O=C(CSc1nc2ccccc2o1)Nc1ccc(Cl)cn1 [compound 077]	12%	0%
N=C(N)N/N=C/c1ccc([N+](=O)[O-])cc1 [compound 078]	12%	0%
O=C(NCCc1nc2ccccc2[nH]1)c1cccs1 [compound 079]	12%	0%
O=C(COc1ccc(Cl)cc1)N/N=C/c1cccs1 [compound 080]	11%	24%

SMILES	[…]. coli (ecNadD)	[…]. anthracis (baNadD)
NS(=O)(=O)c1ccc(NC(=O)CCc2ccccc2)cc1 [compound 081]	11%	0%
O=c1[nH]c2ccc(NC(=S)Nc3ccccc3)cc2[nH]1 [compound 083]	11%	0%
NS(=O)(=O)c1ccc(NC(=S)Nc2ccc(Cl)cc2F)cc1 [compound 084]	11%	0%
NS(=O)(=O)c1ccc(NC(=S)NCc2ccccc2)cc1 [compound 085]	11%	0%
O=C(Nc1ccc(O)cc1)c1ccc(Cl)c(Cl)c1 [compound 086]	11%	0%
O=C(O)CCNc1ccc(Br)cc1C(=O)O [compound 087]	11%	0%
Cc1nnc(SCC(=O)Nc2ccc(Cl)cn2)s1 [compound 088]	11%	0%
O=C(O)CC(NC(=O)c1ccccc1NC(=O)c1ccco1)C(=O)O (stereo not shown) [compound 089]	10%	37%
COc1cc(OC)cc(-c2cn[nH]c2N)c1 [compound 090]	10%	0%
Cn1ccc(NC(=O)Nc2ccc(Cl)cc2Cl)n1 [compound 091]	10%	0%
Cc1ccc(S(=O)(=O)/N=C/c2cccnc2)cc1 [compound 092]	10%	0%
CCS(=O)(=O)CCSc1nc2ccccc2o1 [compound 094]	10%	0%
NS(=O)(=O)c1ccc(CCNC(=S)Nc2ccc(S(N)(=O)=O)cc2)cc1 [compound 095]	10%	0%
NC(=O)c1ccc(NC(=O)COc2ccc3ccccc3c2)cc1 [compound 097]	10%	63%
COc1cccc(C=C2C(=O)NC(=O)NC2=O)c1OCC(=O)O [compound 098]	10%	13%
Cc1cc(OCC(=O)Nc2ccc(S(N)(=O)=O)cc2)ccc1Cl [compound 099]	10%	2%
O=C(CSc1nnc(-c2ccncc2)[nH]1)Nc1ccccc1Cl [compound 100]	9%	0%
NS(=O)(=O)c1ccc(CCNC(=O)COc2ccc(Cl)cc2Cl)cc1 [compound 101]	9%	0%
Cc1nc(N)nc(O)c1Oc1ccccc1 [compound 102]	9%	6%
COc1ccc(NS(=O)(=O)c2ccc(SC)cc2)cc1 [compound 103]	9%	0%
Nc1nnc(SCc2ccccc2Cl)s1 [compound 104]	9%	29%
Cc1ccc(NC(=S)NC(=O)c2ccc(F)cc2)nc1 [compound 105]	9%	51%
CCOC(=O)c1cc(-c2ccc(C)cc2)[nH]n1 [compound 106]	9%	0%
O=C(O)c1cc(Cl)c(Cl)cc1C(=O)Nc1ccc(O)cc1 [compound 107]	9%	0%
Cn1nnnc1SCC(=O)Nc1ccc(Br)cc1Cl [compound 108]	9%	0%

SMILES	[…]. coli (ecNadD)	[…]. anthracis (baNadD)
CCCn1cc(C(CC(=O)O)C(=O)O)c2ccccc21 (stereo not shown) [compound 110]	9%	0%
O=c1/c(=C/c2ccc(O)cc2)sc2nc3cc(Br)cnc3n12 [compound 111]	9%	6%
O=C(Nc1ncnc2[nH]cnc12)c1ccccc1 [compound 112]	8%	0%
Br.Cn1ccnc1SCC(=O)c1ccccc1 [compound 113]	8%	12%
CCCCN(C(C)=O)c1ccc(C(=O)O)cc1 [compound 114]	8%	0%
O=C(O)CN(c1ccccc1)S(=O)(=O)c1ccccc1[N+](=O)[O-] [compound 115]	8%	0%
O=C(O)c1nonc1NCn1cnnn1 [compound 116]	8%	5%
O=C(O)Cn1cc(Cl)c([N+](=O)[O-])n1 [compound 117]	8%	14%
NS(=O)(=O)c1ccc(/N=C/c2ccc(Cl)cc2Cl)cc1 [compound 118]	8%	0%
O=C(O)c1cc(/N=C/c2ccc3c(c2)OCO3)ccc1O [compound 119]	8%	0%
Cc1cccc(C(=O)NNC(=O)/C=C\C(=O)O)c1 [compound 120]	8%	0%
CCSc1ccccc1C(=O)Nc1ccc(S(N)(=O)=O)cc1 [compound 121]	8%	0%
Cc1ccc(C(=O)Nc2nc3ccc(Br)cc3s2)o1 [compound 123]	7%	0%
O=C(NCc1ccccc1)Nc1ccc2nsnc2c1 [compound 124]	7%	0%
CC(=O)Nc1ccc(OCC(=O)Nc2ccccc2)cc1 [compound 125]	7%	0%
CCOc1ccc(S(=O)(=O)Nc2cccnc2)cc1 [compound 126]	7%	22%
CC(=O)c1ccc(NC(=O)CC(NCc2cccnc2)C(=O)O)cc1 (stereo not shown) [compound 127]	7%	59%
CC(=O)Nc1ccc(NC(=O)CSc2nccc(O)n2)cc1 [compound 128]	7%	0%
O=C(CSc1nnc[nH]1)Nc1ccc(I)cc1 [compound 129]	7%	0%
O=C(O)c1ccccc1S(=O)(=O)c1ccccc1C(=O)O [compound 130]	7%	28%
O=C(O)/C=C\C(=O)Nc1ccc(Br)c(Cl)c1 [compound 131]	7%	0%
O=C(O)c1ccccc1NC1=NS(=O)(=O)c2ccccc21 [compound 132]	6%	25%
O=C(O)c1cc(C(=O)O)cc(N2C(=O)c3ccc(C(=O)O)cc3C2=O)c1 [compound 134]	6%	0%
O=c1[nH]c2ccc(/N=C/c3cc(Cl)ccc3O)cc2[nH]1 [compound 135]	6%	10%
